Measured values: ChEMBL document CHEMBL1148995, “Antitumor agents from bohemic acid complex, VI. Schaunardimycin” (J Nat Prod, 1984)

Experiments:
Mus musculus [1] = experiment: Toxicity in mouse L1210 cells implanted CDF1 mouse assessed as survivors on day 5 at 25.6 mg/kg, ip single dose on day 1; assay type: organism-based; set-up: dose 25.6 mg/kg, route intraperitoneal; conditions: in vivo
L1210 [2] = experiment: Antitumor activity against mouse L1210 cells implanted in CDF1 mouse at 0.4 mg/kg, ip single dose on day 1 relative to control; assay type: functional; conditions: route intraperitoneal
L1210 [3] = experiment: Antitumor activity against mouse L1210 cells implanted in CDF1 mouse assessed as median survival time at 1.6 mg/kg, ip qd for 1 to 5 days; assay type: functional; conditions: route intraperitoneal
L1210 [4] = experiment: Antitumor activity against mouse L1210 cells implanted in CDF1 mouse assessed as median survival time at 1.6 mg/kg, ip single dose on day 1; assay type: functional; conditions: route intraperitoneal
L1210 [5] = experiment: Antitumor activity against mouse L1210 cells implanted in CDF1 mouse assessed as median survival time at 6.4 mg/kg, ip single dose on day 1; assay type: functional; conditions: route intraperitoneal
L1210 [6] = experiment: Antitumor activity against mouse L1210 cells implanted in CDF1 mouse assessed as median survival time at 3.2 mg/kg, ip single dose on day 1; assay type: functional; conditions: route intraperitoneal
Mus musculus [7] = experiment: Toxicity in mouse L1210 cells implanted CDF1 mouse assessed as survivors on day 5 at 6.4 mg/kg, ip single dose on day 1; assay type: organism-based; set-up: dose 6.4 mg/kg, route intraperitoneal; conditions: in vivo
L1210 [8] = experiment: Antitumor activity against mouse L1210 cells implanted in CDF1 mouse at 0.8 mg/kg, ip qd for 1 to 5 days relative to control; assay type: functional; conditions: route intraperitoneal
L1210 [9] = experiment: Antitumor activity against mouse L1210 cells implanted in CDF1 mouse at 1.6 mg/kg, ip qd for 1 to 5 days relative to control; assay type: functional; conditions: route intraperitoneal
L1210 [10] = experiment: Antitumor activity against mouse L1210 cells implanted in CDF1 mouse at 0.2 mg/kg, ip single dose on day 1 relative to control; assay type: functional; conditions: route intraperitoneal
Mus musculus [11] = experiment: Toxicity in mouse L1210 cells implanted CDF1 mouse assessed as survivors on day 5 at 0.4 mg/kg, ip qd for 1 to 5 days; assay type: organism-based; set-up: dose 0.4 mg/kg, route intraperitoneal; conditions: in vivo
Mus musculus [12] = experiment: Toxicity in mouse L1210 cells implanted CDF1 mouse assessed as survivors on day 5 at 0.8 mg/kg, ip qd for 1 to 5 days; assay type: organism-based; set-up: dose 0.8 mg/kg, route intraperitoneal; conditions: in vivo
L1210 [13] = experiment: Antitumor activity against mouse L1210 cells implanted in CDF1 mouse at 0.8 mg/kg, ip single dose on day 1 relative to control; assay type: functional; conditions: route intraperitoneal
L1210 [14] = experiment: Antitumor activity against mouse L1210 cells implanted in CDF1 mouse at 6.4 mg/kg, ip qd for 1 to 5 days relative to control; assay type: functional; conditions: route intraperitoneal
Mus musculus [15] = experiment: Toxicity in mouse L1210 cells implanted CDF1 mouse assessed as average weight gain at 0.8 mg/kg, ip qd for 1 to 5 days; assay type: organism-based; set-up: dose 0.8 mg/kg, route intraperitoneal; conditions: in vivo
L1210 [16] = experiment: Antitumor activity against mouse L1210 cells implanted in CDF1 mouse at 0.4 mg/kg, ip qd for 1 to 5 days relative to control; assay type: functional; conditions: route intraperitoneal
Mus musculus [17] = experiment: Toxicity in mouse L1210 cells implanted CDF1 mouse assessed as average weight gain at 3.2 mg/kg, ip qd for 1 to 5 days; assay type: organism-based; set-up: dose 3.2 mg/kg, route intraperitoneal; conditions: in vivo
L1210 [18] = experiment: Antitumor activity against mouse L1210 cells implanted in CDF1 mouse assessed as median survival time at 0.2 mg/kg, ip qd for 1 to 5 days; assay type: functional; conditions: route intraperitoneal
Mus musculus [19] = experiment: Toxicity in mouse L1210 cells implanted CDF1 mouse assessed as survivors on day 5 at 3.2 mg/kg, ip qd for 1 to 5 days; assay type: organism-based; set-up: dose 3.2 mg/kg, route intraperitoneal; conditions: in vivo
Mus musculus [20] = experiment: Toxicity in mouse L1210 cells implanted CDF1 mouse assessed as average weight gain at 12.8 mg/kg, ip single dose on day 1; assay type: organism-based; set-up: dose 12.8 mg/kg, route intraperitoneal; conditions: in vivo
Mus musculus [21] = experiment: Toxicity in mouse L1210 cells implanted CDF1 mouse assessed as average weight gain at 0.4 mg/kg, ip qd for 1 to 5 days; assay type: organism-based; set-up: dose 0.4 mg/kg, route intraperitoneal; conditions: in vivo
L1210 [22] = experiment: Antitumor activity against mouse L1210 cells implanted in CDF1 mouse at 3.2 mg/kg, ip single dose on day 1 relative to control; assay type: functional; conditions: route intraperitoneal
Mus musculus [23] = experiment: Toxicity in mouse L1210 cells implanted CDF1 mouse assessed as survivors on day 5 at 3.2 mg/kg, ip single dose on day 1; assay type: organism-based; set-up: dose 3.2 mg/kg, route intraperitoneal; conditions: in vivo
Mus musculus [24] = experiment: Toxicity in mouse L1210 cells implanted CDF1 mouse assessed as average weight gain at 0.8 mg/kg, ip single dose on day 1; assay type: organism-based; set-up: dose 0.8 mg/kg, route intraperitoneal; conditions: in vivo
L1210 [25] = experiment: Antitumor activity against mouse L1210 cells implanted in CDF1 mouse assessed as median survival time at 0.8 mg/kg, ip single dose on day 1; assay type: functional; conditions: route intraperitoneal
Mus musculus [26] = experiment: Toxicity in mouse L1210 cells implanted CDF1 mouse assessed as survivors on day 5 at 1.6 mg/kg, ip qd for 1 to 5 days; assay type: organism-based; set-up: dose 1.6 mg/kg, route intraperitoneal; conditions: in vivo
Mus musculus [27] = experiment: Toxicity in mouse L1210 cells implanted CDF1 mouse assessed as average weight gain at 0.2 mg/kg, ip qd for 1 to 5 days; assay type: organism-based; set-up: dose 0.2 mg/kg, route intraperitoneal; conditions: in vivo
Mus musculus [28] = experiment: Toxicity in mouse L1210 cells implanted CDF1 mouse assessed as average weight gain at 6.4 mg/kg, ip qd for 1 to 5 days; assay type: organism-based; set-up: dose 6.4 mg/kg, route intraperitoneal; conditions: in vivo

Compound: CC[C@@]1(O)C[C@H](O[C@H]2C[C@H](NC)[C@H](O[C@H]3C[C@H](O)[C@H](O)[C@H](C)O3)[C@H](C)O2)c2c(cc3c(c2O)C(=O)c2c(O)ccc(O)c2C3=O)[C@H]1C(=O)OC [SCHAUNARDIMYCIN]
- Activity (Mus musculus [1]): Active
- T/C (L1210 [2]): 100%
- MST (L1210 [3]): 7.5 days
- MST (L1210 [4]): 6.5 days
- MST (L1210 [5]): 7 days
- MST (L1210 [6]): 7 days
- Activity (Mus musculus [7]): Active
- T/C (L1210 [8]): 117%
- T/C (L1210 [9]): 125%
- T/C (L1210 [10]): 100%
- Activity (Mus musculus [11]): Active
- Activity (Mus musculus [12]): Active
- T/C (L1210 [13]): 100%
- T/C (L1210 [14]): 133%
- weight gain (Mus musculus [15]): 3.5 g
- T/C (L1210 [16]): 117%
- Activity (Mus musculus [17]): 2.8 g
- MST (L1210 [18]): 7 days
- Activity (Mus musculus [19]): Active
- Activity (Mus musculus [20]): 0.7 g
- weight gain (Mus musculus [21]): 2.6 g
- T/C (L1210 [22]): 117%
- Activity (Mus musculus [23]): Active
- weight gain (Mus musculus [24]): 2.8 g
- MST (L1210 [25]): 6 days
- Activity (Mus musculus [26]): Active
- weight gain (Mus musculus [27]): 2.6 g
- Activity (Mus musculus [28]): 1.6 g
